Assay: Solubility of compound in safety solvent
Format: physicochemical
Details: for solubility in CHN (dissolved amount): solvent cyclohexanone (CHN); for solubility in PGME (dissolved amount): solvent propylene glycol monomethyl ether (PGME)
Description: (1) Solubility of Compound in Safety Solvent
The compounds obtained in Synthesis Examples 1 to 6 and Synthesis 1 to 4 were evaluated for the solubility in propylene glycol monomethyl ether (PGME) and cyclohexanone (CHN).
A: 20.0 wt %≦dissolved amount
B: 1.0 wt %≦dissolved amount<20.0 wt %
C: dissolved amount<1.0 wt %

CC(C)c1ccc(C2c3cc(c(O)cc3O)C(c3ccc(C(C)C)cc3)c3cc(c(O)cc3O)C(c3ccc(C(C)C)cc3)c3cc(c(O)cc3O)C(c3ccc(C(C)C)cc3)c3cc2c(O)cc3O)cc1 (stereo not shown) [CR-1A]
solubility in CHN (dissolved amount): B (1.0 wt %≦dissolved amount<20.0 wt %) | solubility in PGME (dissolved amount): B (1.0 wt %≦dissolved amount<20.0 wt %)

Oc1cc(O)c2cc1C(c1ccc(C3CCCCC3)cc1)c1cc(c(O)cc1O)C(c1ccc(C3CCCCC3)cc1)c1cc(c(O)cc1O)C(c1ccc(C3CCCCC3)cc1)c1cc(c(O)cc1O)C2c1ccc(C2CCCCC2)cc1 (stereo not shown) [CR-4A]
solubility in CHN (dissolved amount): B (1.0 wt %≦dissolved amount<20.0 wt %) | solubility in PGME (dissolved amount): B (1.0 wt %≦dissolved amount<20.0 wt %)

From US20120156615A1, “CYCLIC COMPOUND, PROCESS FOR PRODUCTION OF THE CYCLIC COMPOUND, RADIATION-SENSITIVE COMPOSITION, AND METHOD FOR FORMATION OF RESIST PATTERN” (MITSUBISHI GAS CHEMICAL COMPANY, INC., priority 2009, published 2012)
